Measured values as given in ChEMBL document CHEMBL4483862, “Open-source discovery of chemical leads for next-generation chemoprotective antimalarials” (2018).

System: Plasmodium berghei
Assay: Luciferase/luciferin-expressing antifolate-resistant parasites were used to infect a culture of HepG2 cells that were pre-incubated with compounds. Infected hepatocytes emit light due to the luciferase reaction. Assay results are presented as the percent inhibition of light emission compared to control. […]
Assay type: functional
Conditions: sporozoite; for IC90: read-out: LUCIFERASE INFECTION ASSAY - IC90

Row | Compound | IC90 [µM] | further results
1 | COc1ccccc1OCCNC(=O)c1cc(C2CC2)nc2c1cnn2C(C)C | > 10 | IC50 (FFLUC_HILL_SLOPE 16.8, FFLUC_R_SQUARED 0.0713, HEPG2TOX_HILL_SLOPE 2.22, HEPG2TOX_R_SQUARED 0.212, read-out: LUCIFERASE INFECTION ASSAY - IC50): > 10 µM
2 | Cc1cc(C)c(C)c(S(=O)(=O)N2CCN(CC(=O)c3c(N)n(Cc4ccccc4)c(=O)n(C)c3=O)CC2)c1C | > 10 | IC50 (FFLUC_HILL_SLOPE 17, FFLUC_R_SQUARED 0.51, read-out: LUCIFERASE INFECTION ASSAY - IC50): > 10 µM
3 | CCn1nc(C)c(Br)c1C(=O)Sc1ccccc1Cl | > 9.17 | IC50 (FFLUC_HILL_SLOPE 17.2, FFLUC_R_SQUARED 0.444, read-out: LUCIFERASE INFECTION ASSAY - IC50): > 9.17 µM
4 | CC(Cc1cccs1)N(Cc1ccc(Cl)cc1)C(=O)c1ccc(Cl)c(S(=O)(=O)N2CCCCC2)c1 (configuration not stated) | > 10 | IC50 (FFLUC_HILL_SLOPE 17, FFLUC_R_SQUARED 0.198, read-out: LUCIFERASE INFECTION ASSAY - IC50): > 10 µM
5 | CC(=O)c1ccc(NC(=O)c2nn(-c3ccccc3)c3c2C2CCC3(C)C2(C)C)cc1 (configuration not stated) | > 10 | IC50 (FFLUC_HILL_SLOPE 16.9, FFLUC_R_SQUARED 0.354, read-out: LUCIFERASE INFECTION ASSAY - IC50): > 10 µM
6 | Cc1cc(Oc2ccc(NC(=O)Nc3c(-c4c(Cl)cccc4Cl)noc3C)cn2)cc(C)c1Cl | > 6.37 | IC50 (FFLUC_HILL_SLOPE 16.7, FFLUC_R_SQUARED 0.348, read-out: LUCIFERASE INFECTION ASSAY - IC50): > 6.37 µM
7 | CCOc1ccc(-n2c(Sc3ccc4nnnn4n3)nnc2-c2ccc(C(C)(C)C)cc2)cc1 | 9.4 | IC50 (FFLUC_HILL_SLOPE 16.9, FFLUC_R_SQUARED 0.24, PBLUC_HILL_SLOPE 5, PBLUC_R_SQUARED 0.626, read-out: LUCIFERASE INFECTION ASSAY - IC50): 6.06 µM
8 | Nc1ccc(NC2=C(Cl)C(=O)c3ccccc3C2=O)cc1 | 5.78 | IC50 (FFLUC_HILL_SLOPE 16.7, FFLUC_R_SQUARED 0.273, HEPG2TOX_HILL_SLOPE 2.85, HEPG2TOX_R_SQUARED 0.992, PBLUC_HILL_SLOPE 8.6, PBLUC_R_SQUARED 0.505, read-out: LUCIFERASE INFECTION ASSAY - IC50): 4.48 µM
9 | C/C(=N\NC(N)=S)c1ccc(OCc2ncc(C(F)(F)F)cc2Cl)cc1 | 4.57 | IC50 (FFLUC_HILL_SLOPE 17.3, FFLUC_R_SQUARED 0.0449, HEPG2TOX_HILL_SLOPE 9.24, HEPG2TOX_R_SQUARED 0.314, PBLUC_HILL_SLOPE 1.92, PBLUC_R_SQUARED 0.719, read-out: LUCIFERASE INFECTION ASSAY - IC50): 1.46 µM
10 | CCCCNC(=O)c1c(NC(=O)c2ccccc2F)nc2ccc(C)cn12 | 3.54 | IC50 (FFLUC_HILL_SLOPE 17.2, FFLUC_R_SQUARED 0.157, HEPG2TOX_HILL_SLOPE 8.23, HEPG2TOX_R_SQUARED 0.602, PBLUC_HILL_SLOPE 11.7, PBLUC_R_SQUARED 0.726, read-out: LUCIFERASE INFECTION ASSAY - IC50): 2.94 µM
11 | O=[N+]([O-])c1ccccc1Sc1sc2ncnc(N/N=C/c3ccc(Cl)cc3Cl)c2c1-c1ccccc1 | > 10 | IC50 (FFLUC_HILL_SLOPE 17, FFLUC_R_SQUARED 0.5, read-out: LUCIFERASE INFECTION ASSAY - IC50): > 10 µM
12 | Cc1ccccc1OC1=C(Cl)C(=O)c2ccccc2C1=O | 9.86 | IC50 (FFLUC_HILL_SLOPE 16.7, FFLUC_R_SQUARED 0.318, HEPG2TOX_HILL_SLOPE 9.14, HEPG2TOX_R_SQUARED 0.751, PBLUC_HILL_SLOPE 4.24, PBLUC_R_SQUARED 0.127, read-out: LUCIFERASE INFECTION ASSAY - IC50): 5.87 µM
13 | Cc1nn2c(NCCCn3ccnc3)cc(C(C)(C)C)nc2c1-c1ccccc1 | 3.07 | IC50 (FFLUC_HILL_SLOPE 16.6, FFLUC_R_SQUARED 0.48, HEPG2TOX_HILL_SLOPE 8.1, HEPG2TOX_R_SQUARED 0.76, PBLUC_HILL_SLOPE 15.5, PBLUC_R_SQUARED 0.267, read-out: LUCIFERASE INFECTION ASSAY - IC50): 2.66 µM
14 | Cn1ccc2cc(-c3cn4c(-c5ccc(CO)cc5)cnc4cn3)ccc21 | 0.829 | IC50 (FFLUC_HILL_SLOPE 16.7, FFLUC_R_SQUARED 0.117, HEPG2TOX_HILL_SLOPE 0.88, HEPG2TOX_R_SQUARED 0.915, PBLUC_HILL_SLOPE 3.4, PBLUC_R_SQUARED 0.717, read-out: LUCIFERASE INFECTION ASSAY - IC50): 0.435 µM
15 | Cc1cccc(Cn2nc(C(C)(C)C)cc2-c2nnc(SCC(=O)c3ccccc3)o2)c1 | > 7.39 | IC50 (FFLUC_HILL_SLOPE 16.7, FFLUC_R_SQUARED 0.464, PBLUC_HILL_SLOPE 10.3, PBLUC_R_SQUARED 0.0963, read-out: LUCIFERASE INFECTION ASSAY - IC50): > 7.39 µM
16 | O=C1C=CC(=O)N1c1ccc(Cl)c(Cl)c1 | > 13.6 | IC50 (FFLUC_HILL_SLOPE 16.6, FFLUC_R_SQUARED 0.832, read-out: LUCIFERASE INFECTION ASSAY - IC50): > 13.6 µM

Row | Compound | IC90 [µM] | further results
17 | O=c1c(-c2ccc(Cl)cc2)c[nH]n1-c1cccc(C(F)(F)F)c1 | > 9.74 | IC50 (FFLUC_HILL_SLOPE 17.4, FFLUC_R_SQUARED 0.432, HEPG2TOX_HILL_SLOPE 8.27, HEPG2TOX_R_SQUARED 0.828, PBLUC_HILL_SLOPE 3.62, PBLUC_R_SQUARED 0.841, read-out: LUCIFERASE INFECTION ASSAY - IC50): 5.59 µM
18 | O=C(NC1=C(Nc2ccc3c(c2)OCCO3)C(=O)c2ccccc2C1=O)c1ccc(Cl)cc1 | > 10 | IC50 (FFLUC_HILL_SLOPE 16.8, FFLUC_R_SQUARED 0.568, PBLUC_HILL_SLOPE 3.91, PBLUC_R_SQUARED 0.215, read-out: LUCIFERASE INFECTION ASSAY - IC50): 6.65 µM
19 | CCCn1c(NC(=O)Cc2coc3cc(OC)ccc23)nc2ccccc21 | 1.31 | IC50 (FFLUC_HILL_SLOPE 16.7, FFLUC_R_SQUARED 0.137, HEPG2TOX_HILL_SLOPE 1.66, HEPG2TOX_R_SQUARED 0.728, PBLUC_HILL_SLOPE 12.1, PBLUC_R_SQUARED 0.477, read-out: LUCIFERASE INFECTION ASSAY - IC50): 1.09 µM
20 | O=C(C(/C=N/O)=N/Nc1ccc(C(F)(F)F)cc1)c1ccc(Br)cc1 | 3.98 | IC50 (FFLUC_HILL_SLOPE 17.5, FFLUC_R_SQUARED 0.273, HEPG2TOX_HILL_SLOPE 2.17, HEPG2TOX_R_SQUARED 0.985, PBLUC_HILL_SLOPE 7.45, PBLUC_R_SQUARED 0.303, read-out: LUCIFERASE INFECTION ASSAY - IC50): 2.96 µM
21 | COc1ccc(CC2CCC(=NOC(=O)c3ccc(C(C)(C)C)cc3)CC2)cc1 (configuration not stated) | > 8.39 | IC50 (FFLUC_HILL_SLOPE 16.8, FFLUC_R_SQUARED 0.295, read-out: LUCIFERASE INFECTION ASSAY - IC50): > 8.39 µM
22 | OCc1ccc(-c2cnc3ccc(-c4cccc(F)c4)nn23)cc1 | 8.2 | IC50 (FFLUC_HILL_SLOPE 16.8, FFLUC_R_SQUARED 0.417, HEPG2TOX_HILL_SLOPE 9.34, HEPG2TOX_R_SQUARED 0.811, PBLUC_HILL_SLOPE 2.28, PBLUC_R_SQUARED 0.536, read-out: LUCIFERASE INFECTION ASSAY - IC50): 3.13 µM
23 | CCN(CC)c1ccc(/C=N/Nc2ccc(C)cc2C)c(O)c1 | > 10 | IC50 (FFLUC_HILL_SLOPE 17.2, FFLUC_R_SQUARED 0.349, PBLUC_HILL_SLOPE 3.28, PBLUC_R_SQUARED 0.115, read-out: LUCIFERASE INFECTION ASSAY - IC50): 5.38 µM
24 | O=C(Nc1ccc(F)c(Cl)c1)Nc1csc(Cc2c(Cl)cccc2Cl)n1 | > 7.66 | IC50 (FFLUC_HILL_SLOPE 16.6, FFLUC_R_SQUARED 0.437, PBLUC_HILL_SLOPE 14.1, PBLUC_R_SQUARED 0.179, read-out: LUCIFERASE INFECTION ASSAY - IC50): 6.61 µM
25 | O=C1Nc2cc(Cl)ccc2/C1=C\c1nn(Cc2ccccc2)cc1-c1cccnc1 | > 10 | IC50 (FFLUC_HILL_SLOPE 16.7, FFLUC_R_SQUARED 0.641, read-out: LUCIFERASE INFECTION ASSAY - IC50): > 10 µM
26 | C/C(=N\NC(=S)NC(C)(C)C)c1cc(Cl)cc(Cl)c1O | > 9.87 | IC50 (FFLUC_HILL_SLOPE 16.6, FFLUC_R_SQUARED 0.277, read-out: LUCIFERASE INFECTION ASSAY - IC50): > 9.87 µM
27 | O=C(OCc1cc(=O)oc2ccc3ccccc3c12)c1ccccc1-c1ccc(C(F)(F)F)cc1 | > 10 | IC50 (FFLUC_HILL_SLOPE 17.5, FFLUC_R_SQUARED 0.62, read-out: LUCIFERASE INFECTION ASSAY - IC50): > 10 µM
28 | CCCCCCCCCONC(=O)Nc1ccc([N+](=O)[O-])cc1 | > 10 | IC50 (FFLUC_HILL_SLOPE 17.3, FFLUC_R_SQUARED 0.0693, PBLUC_HILL_SLOPE 3, PBLUC_R_SQUARED 0.451, read-out: LUCIFERASE INFECTION ASSAY - IC50): 6.31 µM
29 | CC(C)n1c(SCC(=O)N(Cc2ccco2)C2=CCCCC2)nc2ccccc2c1=O | 9.27 | IC50 (FFLUC_HILL_SLOPE 16.9, FFLUC_R_SQUARED 0.338, PBLUC_HILL_SLOPE 11.7, PBLUC_R_SQUARED 0.501, read-out: LUCIFERASE INFECTION ASSAY - IC50): 7.68 µM
30 | O=C(OCC(=O)C12CC3CC(CC(C3)C1)C2)c1ccc(Oc2ccc(Cl)cc2[N+](=O)[O-])cc1 | > 10 | IC50 (FFLUC_HILL_SLOPE 17.5, FFLUC_R_SQUARED 0.352, PBLUC_HILL_SLOPE 8.52, PBLUC_R_SQUARED 0.214, read-out: LUCIFERASE INFECTION ASSAY - IC50): 9.42 µM
31 | O=C1c2ccccc2SC1(c1nc2ccccc2s1)c1nc2ccccc2s1 | 9.86 | IC50 (FFLUC_HILL_SLOPE 17.4, FFLUC_R_SQUARED 0.735, PBLUC_HILL_SLOPE 16.6, PBLUC_R_SQUARED 0.262, read-out: LUCIFERASE INFECTION ASSAY - IC50): 8.63 µM
